Measurements reported in US20230278972A1, “SUBSTITUTED HALOALKYL SULFONANILIDE HERBICIDES” (FMC Corporation, priority 2020, published 2023).

Assays:
Assay type in all cases: in vivo
[1] = test system: Ryegrass, Italian (Italian ryegrass, Lolium multiflorum); assay: Test A preemergence, Ryegrass, Italian; settings: Preemergence; for Plant response rating, Ryegrass, Italian: 0 to 100 scale (0 no effect, 100 complete control); for Ryegrass, Italian plant response rating: visual injury on 0 to 100 scale (0 no effect, 100 complete control), approximately 10 days
Method in brief: (§1)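 Formulated with a surfactant in a non-phytotoxic solvent, compounds are applied to loam–sand pots, either to bare soil immediately after seeding (preemergence) or to seedlings of 2 to 10 cm bearing one to two leaves (postemergence).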

[2] = test system: ragweed (common ragweed, Ambrosia artemisiifolia); assay: Test A preemergence, ragweed; settings: Preemergence; for Plant response rating, Ragweed: 0 to 100 scale (0 no effect, 100 complete control); for Ragweed plant response rating: visual injury on 0 to 100 scale (0 no effect, 100 complete control), approximately 10 days
Method in brief: as §1

[3] = test system: wheat (Triticum aestivum); assay: Test A postemergence, wheat; settings: Postemergence; for Wheat plant response rating: 500 g ai/ha, visual injury vs untreated controls after approx. 10 days
Method in brief: (§2)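 Barnyardgrass, wheat and galium were treated postemergence at the one- to two-leaf stage (2 to 10 cm) with chemicals formulated in non-phytotoxic solvent plus surfactant, grown in loam soil–sand pots. Pigweed was sown in the same blend and given a preemergence directed soil spray.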

[4] = test system: Foxtail, Giant (giant foxtail, Setaria faberi); assay: Test A postemergence, Foxtail, Giant; settings: Postemergence; for Foxtail, Giant plant response rating: 500 g ai/ha, visual injury vs untreated controls after approx. 10 days
Method in brief: as §1

kochia (Bassia scoparia) [5] = assay: Test A preemergence, kochia; settings: Preemergence; for Plant response rating, Kochia: 0 to 100 scale (0 no effect, 100 complete control); for Kochia plant response rating: visual injury on 0 to 100 scale (0 no effect, 100 complete control), approximately 10 days
Method in brief: as §1

[6] = test system: ragweed (common ragweed, Ambrosia artemisiifolia); assay: Test A postemergence, ragweed; settings: Postemergence; for Ragweed plant response rating: 500 g ai/ha, visual injury vs untreated controls after approx. 10 days
Method in brief: as §1

[7] = test system: barnyardgrass (Echinochloa crus-galli); assay: Test A postemergence, barnyardgrass; settings: Postemergence; for Barnyardgrass plant response rating: 500 g ai/ha, visual injury vs untreated controls after approx. 10 days
Method in brief: as §2

[8] = test system: blackgrass (Alopecurus myosuroides); assay: Test A postemergence, blackgrass; settings: Postemergence; for Blackgrass plant response rating: 500 g ai/ha, visual injury vs untreated controls after approx. 10 days
Method in brief: as §1

[9] = test system: Foxtail, Giant (giant foxtail, Setaria faberi); assay: Test A preemergence, Foxtail, Giant; settings: Preemergence; for Plant response rating, Foxtail, Giant: 0 to 100 scale (0 no effect, 100 complete control); for Foxtail, Giant plant response rating: visual injury on 0 to 100 scale (0 no effect, 100 complete control), approximately 10 days
Method in brief: as §1

kochia (Bassia scoparia) [10] = assay: Test A postemergence, kochia; settings: Postemergence; for Kochia plant response rating: 500 g ai/ha, visual injury vs untreated controls after approx. 10 days
Method in brief: as §1

[11] = test system: pigweed (Amaranthus retroflexus); assay: Test A postemergence, pigweed; settings: Postemergence; for Pigweed plant response rating: 500 g ai/ha, visual injury vs untreated controls after approx. 10 days
Method in brief: as §1

corn (Zea mays) = assay: Test A postemergence, corn; settings: Postemergence; for Corn plant response rating: 500 g ai/ha, visual injury vs untreated controls after approx. 10 days
Method in brief: as §1

[12] = test system: barnyardgrass (Echinochloa crus-galli); assay: Test A preemergence, barnyardgrass; settings: Preemergence; for Plant response rating, Barnyardgrass: 0 to 100 scale (0 no effect, 100 complete control); for Barnyardgrass plant response rating: visual injury on 0 to 100 scale (0 no effect, 100 complete control), approximately 10 days
Method in brief: as §1

[13] = test system: Ryegrass, Italian (Italian ryegrass, Lolium multiflorum); assay: Test A postemergence, Ryegrass, Italian; settings: Postemergence; for Ryegrass, Italian plant response rating: 500 g ai/ha, visual injury vs untreated controls after approx. 10 days
Method in brief: as §1

[14] = test system: galium (catchweed bedstraw, Galium aparine); assay: Test A postemergence, galium; settings: Postemergence; for Galium plant response rating: 500 g ai/ha, visual injury vs untreated controls after approx. 10 days
Method in brief: as §2

[15] = test system: pigweed (Amaranthus retroflexus); assay: Test A preemergence, pigweed; settings: for Plant response rating, Pigweed: 0 to 100 scale (0 no effect, 100 complete control); for Pigweed plant response rating: visual injury on 0 to 100 scale (0 no effect, 100 complete control), approximately 10 days
Method in brief: as §2

[16] = 31 g ai/ha, visual injury, approx. 10 days
[17] = 31 g ai/ha, visual injury on 0 to 100 scale (0 no effect, 100 complete control), approx. 10 days
[18] = 125 g ai/ha, 0 to 100 scale (0 no effect, 100 complete control)
[19] = 125 g ai/ha, visual injury, approx. 10 days
[20] = 0 to 100 scale (0 no effect, 100 complete control)
[21] = 125 g ai/ha, visual injury approx. 10 days, 0 to 100 scale (0 no effect, 100 complete control)
[22] = 31 g ai/ha, 0 to 100 scale (0 no effect, 100 complete control)

Cc1cc(C)c(N2CC3(CCOCC3)OC2=O)cc1NS(=O)(=O)C(F)(F)F [Compound 156]
30: Plant response rating, Wheat [3, 17] | Plant response rating, Foxtail, Giant [4, 17] | Plant response rating, Kochia (kochia (Bassia scoparia) [5]; [16])
90: Ragweed plant response rating ([2]; 125 g ai/ha) | Plant response rating, Ragweed [6, 17] | Plant response rating, Ragweed [6, 18] | Plant response rating, Barnyardgrass [7, 17] | Plant response rating, Barnyardgrass [7, 18] | Plant response rating, Pigweed [11, 18]
40: Plant response rating, Wheat [3, 18] | Plant response rating, Blackgrass [8, 18] | Plant response rating, Kochia (kochia (Bassia scoparia) [10]; [17])
50: Plant response rating, Ryegrass, Italian [1, 16] | Kochia plant response rating (kochia (Bassia scoparia) [5]; 125 g ai/ha) | Plant response rating, Foxtail, Giant [9, 16]
70: Ryegrass, Italian plant response rating ([1]; 125 g ai/ha) | Plant response rating, Foxtail, Giant [4, 18] | Plant response rating, Kochia (kochia (Bassia scoparia) [10]; [18]) | Plant response rating, Barnyardgrass [12, 16]
20: Plant response rating, Corn (corn (Zea mays); [18])
100: Foxtail, Giant plant response rating ([9]; 125 g ai/ha) | Barnyardgrass plant response rating ([12]; 125 g ai/ha) | Plant response rating, Galium [14, 17] | Plant response rating, Galium [14, 18] | Pigweed plant response rating ([15]; 125 g ai/ha)
0: Plant response rating, Blackgrass [8, 17] | Plant response rating, Corn (corn (Zea mays); [17]) | Plant response rating, Ryegrass, Italian [13, 17]
10: Plant response rating, Ryegrass, Italian [13, 18]
80: Plant response rating, Pigweed [15, 16]
60: Plant response rating, Ragweed [2, 16] | Plant response rating, Pigweed [11, 17]

Cc1cc(Cl)c(NS(=O)(=O)C(F)(F)F)cc1C1=NOC(C)(C)C1 [Compound 203]
70: Wheat plant response rating [3, 20] | Plant response rating, Ragweed [6, 18]
90: Plant response rating, Ragweed ([2]; 500 g ai/ha) | Plant response rating, Kochia (kochia (Bassia scoparia) [5]; 500 g ai/ha) | Ragweed plant response rating [6, 20] | Plant response rating, Barnyardgrass [12, 19] | Plant response rating, Barnyardgrass ([12]; 500 g ai/ha) | Galium plant response rating [14, 20]
10: Plant response rating, Corn (corn (Zea mays); [18])
0: Plant response rating, Foxtail, Giant [4, 18] | Plant response rating, Ryegrass, Italian [13, 18]
20: Plant response rating, Blackgrass [8, 18] | Plant response rating, Pigweed [11, 18]
40: Plant response rating, Wheat [3, 18] | Plant response rating, Kochia (kochia (Bassia scoparia) [10]; [18])
30: Blackgrass plant response rating [8, 20] | Plant response rating, Foxtail, Giant [9, 19]
50: Plant response rating, Ryegrass, Italian [1, 19] | Foxtail, Giant plant response rating [4, 20]
80: Plant response rating, Ragweed [2, 19] | Barnyardgrass plant response rating [7, 20] | Kochia plant response rating (kochia (Bassia scoparia) [10]; [20]) | Plant response rating, Galium [14, 18]
100: Plant response rating, Ryegrass, Italian ([1]; 500 g ai/ha) | Plant response rating, Foxtail, Giant ([9]; 500 g ai/ha) | Plant response rating, Pigweed ([15]; 500 g ai/ha)
60: Plant response rating, Kochia (kochia (Bassia scoparia) [5]; [19]) | Plant response rating, Barnyardgrass [7, 18] | Pigweed plant response rating [11, 20] | Corn plant response rating (corn (Zea mays); [20]) | Ryegrass, Italian plant response rating [13, 20] | Plant response rating, Pigweed [15, 19]

COC1CN(C(=O)c2cc(NS(=O)(=O)C(F)(F)F)c(C)cc2C)C1 [Compound 111]
90: Plant response rating, Ragweed [6, 21] | Plant response rating, Pigweed [11, 21] | Pigweed plant response rating ([15]; 125 g ai/ha)
30: Barnyardgrass plant response rating ([12]; 125 g ai/ha) | Plant response rating, Ryegrass, Italian [13, 17] | Plant response rating, Ryegrass, Italian [13, 21]
50: Plant response rating, Wheat [3, 21] | Kochia plant response rating (kochia (Bassia scoparia) [5]; 125 g ai/ha) | Plant response rating, Galium [14, 17]
10: Plant response rating, Ragweed [2, 16] | Plant response rating, Barnyardgrass [12, 16] | Plant response rating, Pigweed [15, 16]
20: Plant response rating, Kochia (kochia (Bassia scoparia) [10]; [17]) | Plant response rating, Pigweed [11, 17]
0: Plant response rating, Ryegrass, Italian [1, 16] | Plant response rating, Wheat [3, 17] | Plant response rating, Foxtail, Giant [4, 17] | Plant response rating, Kochia (kochia (Bassia scoparia) [5]; [16]) | Plant response rating, Blackgrass [8, 22] | Plant response rating, Blackgrass [8, 21] | Plant response rating, Foxtail, Giant [9, 16] | Plant response rating, Corn (corn (Zea mays); [17])
60: Plant response rating, Foxtail, Giant [4, 21] | Foxtail, Giant plant response rating ([9]; 125 g ai/ha) | Plant response rating, Kochia (kochia (Bassia scoparia) [10]; [21])
40: Ragweed plant response rating ([2]; 125 g ai/ha) | Plant response rating, Barnyardgrass [7, 22] | Plant response rating, Corn (corn (Zea mays); [21])
80: Plant response rating, Barnyardgrass [7, 21]
70: Ryegrass, Italian plant response rating ([1]; 125 g ai/ha) | Plant response rating, Ragweed [6, 17] | Plant response rating, Galium [14, 21]

CCCn1nccc(-c2cc(NS(=O)(=O)C(F)(F)F)c(C)cc2C)c1=O [Compound 58]
70: Ryegrass, Italian plant response rating ([1]; 125 g ai/ha) | Wheat plant response rating [3, 20]
30: Plant response rating, Foxtail, Giant [4, 21] | Blackgrass plant response rating [8, 20]
100: Plant response rating, Ryegrass, Italian ([1]; 500 g ai/ha) | Foxtail, Giant plant response rating ([9]; 125 g ai/ha) | Plant response rating, Foxtail, Giant ([9]; 500 g ai/ha) | Barnyardgrass plant response rating ([12]; 125 g ai/ha) | Plant response rating, Barnyardgrass ([12]; 500 g ai/ha)
60: Ryegrass, Italian plant response rating [13, 20]
0: Ragweed plant response rating ([2]; 125 g ai/ha) | Plant response rating, Ragweed ([2]; 500 g ai/ha) | Kochia plant response rating (kochia (Bassia scoparia) [5]; 125 g ai/ha) | Plant response rating, Ragweed [6, 21] | Plant response rating, Blackgrass [8, 21] | Plant response rating, Kochia (kochia (Bassia scoparia) [10]; [21]) | Plant response rating, Pigweed [11, 21] | Pigweed plant response rating [11, 20] | Plant response rating, Ryegrass, Italian [13, 21] | Pigweed plant response rating ([15]; 125 g ai/ha)
50: Corn plant response rating (corn (Zea mays); [20]) | Plant response rating, Pigweed ([15]; 500 g ai/ha)
80: Plant response rating, Kochia (kochia (Bassia scoparia) [5]; 500 g ai/ha) | Plant response rating, Galium [14, 21]
20: Plant response rating, Wheat [3, 21] | Ragweed plant response rating [6, 20] | Plant response rating, Barnyardgrass [7, 21] | Kochia plant response rating (kochia (Bassia scoparia) [10]; [20]) | Plant response rating, Corn (corn (Zea mays); [21])
90: Foxtail, Giant plant response rating [4, 20] | Barnyardgrass plant response rating [7, 20] | Galium plant response rating [14, 20]
